Laboratory results reported in PubChem BioAssay AID248 (DTP/NCI, 2004).
Where “and” joins values, the source holds several entries; their conditions need not be identical. Identical values can stand only once. Toxic doses and inconclusive results are not listed. Rule as the data show it: active = T/C of 150% or more; inactive = T/C below 125%.

System: L1210 leukemia ip in BDF1 mice, survival T/C
Assay: NCI In Vivo Anticancer Drug Screen. Data for tumor model L1210 Leukemia (intraperitoneal) in B6D2F1 (BDF1) mice
Conditions: endpoint: mean survival time, higher = longer survival
Experimental: The antitumor activity of compounds was measured in mice bearing transplantable tumors. Survival or tumor size were measured and the results are expressed as the measurement made in the treated group (T) divided by the measurement made in the vehicle treated control group (C). The tumor model used in this assay is L1210 Leukemia (intraperitoneal) in B6D2F1 (BDF1) mice

[1] = dose: 100.0 mg/kg/injection, schedule: Q04DX002 (ip), vehicle: saline
[2] = dose: 200.0 mg/kg/injection, schedule: Q04DX002 (ip), vehicle: saline
[3] = dose: 100.0 mg/kg/injection, schedule: Q01DX001 (ip), vehicle: saline
[4] = dose: 100.0 mg/kg/injection, schedule: Q01DX009 (ip), vehicle: Klucel (hydroxypropylcellulose) (HPC)
[5] = dose: 200.0 mg/kg/injection, schedule: Q01DX009 (ip), vehicle: Klucel (hydroxypropylcellulose) (HPC)
[6] = dose: 400.0 mg/kg/injection, schedule: Q01DX009 (ip), vehicle: Klucel (hydroxypropylcellulose) (HPC)
[7] = dose: 400.0 mg/kg/injection, schedule: Q04DX002 (ip), vehicle: saline with Tween-80
[8] = dose: 100.0 mg/kg/injection, schedule: Q04DX003 (ip), vehicle: Klucel (hydroxypropylcellulose) (HPC)
[9] = dose: 200.0 mg/kg/injection, schedule: Q04DX003 (ip), vehicle: Klucel (hydroxypropylcellulose) (HPC)
[10] = dose: 400.0 mg/kg/injection, schedule: Q04DX003 (ip), vehicle: Klucel (hydroxypropylcellulose) (HPC)
[11] = dose: 200.0 mg/kg/injection, schedule: Q01DX001 (ip), vehicle: saline
[12] = dose: 400.0 mg/kg/injection, schedule: Q01DX001 (ip), vehicle: saline
[13] = dose: 75.0 mg/kg/injection, schedule: Q01DX001 (ip), vehicle: saline

Measured: T/C

Cc1ccc(S(=O)(=O)N2CC(O)C(O)C2Cn2cnc3c(N)ncnc32)cc1 (centres undefined)
inactive: dose: 50.0 mg/kg/injection, schedule: Q04DX002 (ip), vehicle: saline 96 % of control | [1] 102 % of control | [2] 102 % of control

CC1(C)N=C(N)N=C(N)N1c1cccc(OCCCOc2ccc([N+](=O)[O-])cc2)c1
inactive: [3] 91 % of control

Cn1c(C(=O)O)cc2ccccc21
inactive: [4] 110 % of control | [5] 112 % of control | [6] 96 % of control

c1ccc(C(c2ccccc2)(c2ccccc2)c2ccc(Nc3ccc(C(c4ccccc4)(c4ccccc4)c4ccccc4)cc3)cc2)cc1
inactive: dose: 25.6 mg/kg/injection, schedule: Q04DX002 (ip), vehicle: saline with Tween-80 87 % of control | dose: 64.0 mg/kg/injection, schedule: Q04DX002 (ip), vehicle: saline with Tween-80 91 % of control | dose: 160.0 mg/kg/injection, schedule: Q04DX002 (ip), vehicle: saline with Tween-80 97 % of control | [7] 97 % of control

ClC(Cl)(Cl)c1cccc(C(Cl)(Cl)Cl)n1
inactive: dose: 100.0 mg/kg/injection, schedule: Q04DX003 (sc), vehicle: olive oil, sesame oil, peanut oil 97 % of control and 103 % of control | dose: 200.0 mg/kg/injection, schedule: Q04DX003 (sc), vehicle: olive oil, sesame oil, peanut oil 97 % of control and 103 % of control | dose: 400.0 mg/kg/injection, schedule: Q04DX003 (sc), vehicle: olive oil, sesame oil, peanut oil 100 % of control and 101 % of control

COc1ccc(C(=O)NC(=S)Nc2cccc(Cl)c2)cc1
inactive: [4] 91 % of control | [8] 94 % of control | [5] 98 % of control | [9] 91 % of control | [6] 87 % of control | [10] 93 % of control

Cc1ccc(C)c(NS(=O)(=O)c2cc(Cl)c(Cl)cc2Cl)c1
inactive: [4] 98 % of control | [5] 96 % of control

O=C(Nc1ccc(C2=NCCN2)cc1)c1cc(Cl)cc(C(=O)Nc2ccc(C3=NCCN3)cc2)c1
active: dose: 315.0 mg/kg/injection, schedule: Q01DX Z (ip), vehicle: methylcellulose (MC) 179 % of control | dose: 473.0 mg/kg/injection, schedule: Q01DX Z (ip), vehicle: methylcellulose (MC) 151 % of control
inactive: dose: 62.5 mg/kg/injection, schedule: Q01DX009 (ip), vehicle: saline 96 % of control and 104 % of control | dose: 120.0 mg/kg/injection, schedule: Q01DX Z (oral), vehicle: carboxymethylcellulose (CMC) 102 % of control | dose: 125.0 mg/kg/injection, schedule: Q01DX009 (ip), vehicle: saline 99 % of control and 106 % of control | dose: 140.0 mg/kg/injection, schedule: Q01DX010 (ip), vehicle: saline 105 % of control | dose: 140.0 mg/kg/injection, schedule: Q01DX Z (ip), vehicle: methylcellulose (MC) 107 % of control and 110 % of control | dose: 210.0 mg/kg/injection, schedule: Q01DX010 (ip), vehicle: saline 109 % of control | dose: 210.0 mg/kg/injection, schedule: Q01DX Z (ip), vehicle: methylcellulose (MC) 115 % of control | dose: 240.0 mg/kg/injection, schedule: Q01DX Z (oral), vehicle: carboxymethylcellulose (CMC) 104 % of control | dose: 250.0 mg/kg/injection, schedule: Q01DX009 (ip), vehicle: saline 96 % of control and 104 % of control | dose: 315.0 mg/kg/injection, schedule: Q01DX010 (ip), vehicle: saline 98 % of control and 105 % of control | dose: 473.0 mg/kg/injection, schedule: Q01DX010 (ip), vehicle: saline 107 % of control and 110 % of control | dose: 480.0 mg/kg/injection, schedule: Q01DX Z (oral), vehicle: carboxymethylcellulose (CMC) 107 % of control | dose: 500.0 mg/kg/injection, schedule: Q01DX009 (ip), vehicle: saline 103 % of control and 112 % of control | dose: 960.0 mg/kg/injection, schedule: Q01DX Z (oral), vehicle: carboxymethylcellulose (CMC) 100 % of control

O=C(NC(=S)Nc1ccc2ccccc2c1)c1ccc(Cl)cc1Cl
inactive: dose: 100.0 mg/kg/injection, schedule: Q01DX001 (ip), vehicle: saline with Tween-80 100 % of control | dose: 100.0 mg/kg/injection, schedule: Q04DX002 (ip), vehicle: saline with Tween-80 93 % of control and 90 % of control | dose: 200.0 mg/kg/injection, schedule: Q01DX001 (ip), vehicle: saline with Tween-80 101 % of control | dose: 200.0 mg/kg/injection, schedule: Q04DX002 (ip), vehicle: saline with Tween-80 93 % of control and 96 % of control | dose: 400.0 mg/kg/injection, schedule: Q01DX001 (ip), vehicle: saline with Tween-80 96 % of control | [7] 104 % of control and 86 % of control

COP(=O)(OC)OC1C(=O)NC(=O)NC1=O
inactive: dose: 50.0 mg/kg/injection, schedule: Q01DX001 (ip), vehicle: carboxymethylcellulose (CMC) 98 % of control | dose: 100.0 mg/kg/injection, schedule: Q01DX001 (ip), vehicle: carboxymethylcellulose (CMC) 93 % of control | dose: 200.0 mg/kg/injection, schedule: Q01DX001 (ip), vehicle: carboxymethylcellulose (CMC) 96 % of control | dose: 400.0 mg/kg/injection, schedule: Q01DX001 (ip), vehicle: carboxymethylcellulose (CMC) 96 % of control

CS(=O)(=O)OCCN(CCOS(C)(=O)=O)c1ccc(C=Nc2cccc(Cl)c2)cc1
inactive: dose: 1.25 mg/kg/injection, schedule: Q04DX003 (ip), vehicle: Klucel (hydroxypropylcellulose) (HPC) 107 % of control | dose: 5.0 mg/kg/injection, schedule: Q04DX003 (ip), vehicle: Klucel (hydroxypropylcellulose) (HPC) 107 % of control

CCOC(=O)c1cnc(SC)nc1NC(C(=O)OCC)C(=O)OCC
inactive: [8] 93 % of control | [9] 100 % of control | [10] 95 % of control

O=c1cccc(CCc2ccccc2)[nH]1
inactive: [3] 100 % of control | [11] 95 % of control | [12] 105 % of control

CCOc1ccccc1-c1nc2ccccc2s1
inactive: dose: 100.0 mg/kg/injection, schedule: Q04DX003 (ip), vehicle: DMSO 89 % of control | dose: 200.0 mg/kg/injection, schedule: Q04DX003 (ip), vehicle: DMSO 89 % of control | dose: 400.0 mg/kg/injection, schedule: Q04DX003 (ip), vehicle: DMSO 103 % of control

O=C(O)c1ccc(Oc2ccc([N+](=O)[O-])cc2)cc1
inactive: dose: 100.0 mg/kg/injection, schedule: Q01DX001 (ip), vehicle: Klucel (hydroxypropylcellulose) (HPC) 94 % of control | [8] 102 % of control | dose: 200.0 mg/kg/injection, schedule: Q01DX001 (ip), vehicle: Klucel (hydroxypropylcellulose) (HPC) 102 % of control | [9] 92 % of control | dose: 400.0 mg/kg/injection, schedule: Q01DX001 (ip), vehicle: Klucel (hydroxypropylcellulose) (HPC) 108 % of control | [10] 96 % of control

ClCC[n+]1ccccc1
inactive: [13] 104 % of control | dose: 150.0 mg/kg/injection, schedule: Q01DX001 (ip), vehicle: saline 101 % of control

CC(=O)OCC1=C(C(=O)O)N2C(=O)C(NC(=O)CSc3ccncc3)C2SC1 (centres undefined)
inactive: [1] 103 % of control | [2] 114 % of control | dose: 400.0 mg/kg/injection, schedule: Q04DX002 (ip), vehicle: saline 107 % of control

C/C=C/CC1(C(C)C)C(=O)NC(=S)NC1=O
inactive: [13] 93 % of control

O=C(NCCCNC(=O)Nc1ccc(C2=NCCCN2)cc1)Nc1ccc(C2=NCCCN2)cc1
inactive: dose: 10.0 mg/kg/injection, schedule: Q01DX015 (ip), vehicle: methylcellulose (MC) 103 % of control | dose: 20.0 mg/kg/injection, schedule: Q01DX015 (ip), vehicle: methylcellulose (MC) 103 % of control

CC1C(C)C1(Br)c1ccccc1 (centres undefined)
inactive: [3] 91 % of control | [11] 101 % of control | [12] 96 % of control

Cc1ccc(S(=O)(=O)OCCOCCOCCOCCOCCOCCOS(=O)(=O)c2ccc(C)cc2)cc1
inactive: dose: 100.0 mg/kg/injection, schedule: Q01DX001 (ip), vehicle: other 103 % of control | dose: 200.0 mg/kg/injection, schedule: Q01DX001 (ip), vehicle: other 98 % of control | dose: 400.0 mg/kg/injection, schedule: Q01DX001 (ip), vehicle: other 98 % of control
